For this assay, the system named is HBV (2.2.15 cells). The assay can be described thus: HBV viral product reduction in 2.2.15 cells (qPCR / HBsAg or HBeAg ELISA). The format is cell-based. The following applies: Hepatitis B virus, 120 h, day 5 post treatment, concentration reducing viral product accumulation in cell lysates or supernatants by 50% relative to no drug controls. Here is the method:
2.2.15 cells are passaged upon attaining confluency in DMEM/F12 media in the presence of 10% FBS, Penn/Strep, and 250 ug/mL G418. Novel compounds are 5 fold serially diluted in DMSO and added to 96 well plates containing 35,000 cells/well at a 1:200 dilution so that the final concentration of DMSO is 0.5%. On day 5, post treatment cell lysates and supernatants are harvested for analysis.
Cells are lysed using Agilent Sidestep Lysis buffer, diluted 1:100 and quantified via quantitative real time PCR. Commercially available ELISA kits are used to quantitate the viral proteins HBsAg (Alpco) or HBeAg (US Biological) by following the manufacturer's recommended protocol after diluting samples to match the linear range of their respective assays. Irrespective of readout, compound concentrations that reduce viral product accumulation in the cell lysates or supernatants by 50% relative to no drug controls (EC50) are reported; EC50 ranges are as follows: A<0.1 μM; B 0.1-1 μM; C>1 μM.
(In general: In qPCR the cycle at which signal appears reflects the starting amount.)
For orientation: EC50 means the concentration needed to bring the measured effect to its halfway point. With `Cn1nccc1-c1cc2c(c3ccoc13)C[C@@H](C(C)(C)C)n1cc(C(=O)O)c(=O)cc1-2` [Example 4, (S)-5-(tert-butyl)-12-(1-methyl-1H-pyrazol-5-yl)-9-oxo-4,9-dihydro-5H-furo[3,2-f]pyrido[2,1-a]isoquinoline-8-carboxylic acid], the EC50 was less than 100 nM.
As for `CC(C)(C)[C@@H]1Cc2c(cc(N3CCC(F)(F)C3)c3occc23)-c2cc(=O)c(C(=O)O)cn21` [Example 20, (S)-5-(tert-butyl)-12-(3,3-difluoropyrrolidin-1-yl)-9-oxo-4,9-dihydro-5H-furo[3,2-f]pyrido[2,1-a]isoquinoline-8-carboxylic acid], the figure is 100 to 1000 nM.
`CC(C)(C)[C@@H]1Cc2c(cc(N3CCCC3)c3occc23)-c2cc(=O)c(C(=O)O)cn21` [Example 21, (S)-5-(tert-butyl)-9-oxo-12-(pyrrolidin-1-yl)-4,9-dihydro-5H-furo[3,2-f]pyrido[2,1-a]isoquinoline-8-carboxylic acid]: the EC50 is 100 to 1000 nM.
Compound `CC(C)(C)[C@@H]1Cc2c(cc(-c3cnco3)c3occc23)-c2cc(=O)c(C(=O)O)cn21` [Example 22, (S)-5-(tert-butyl)-12-(oxazol-5-yl)-9-oxo-4,9-dihydro-5H-furo[3,2-f]pyrido[2,1-a]isoquinoline-8-carboxylic acid] had an EC50 of 100 to 1000 nM.
`Cn1ccc(-c2cc3c(c4ccoc24)C[C@@H](C(C)(C)C)n2cc(C(=O)O)c(=O)cc2-3)n1` [Example 23, (S)-5-(tert-butyl)-12-(1-methyl-1H-pyrazol-3-yl)-9-oxo-4,9-dihydro-5H-furo[3,2-f]pyrido[2,1-a]isoquinoline-8-carboxylic acid] gave an EC50 greater than 1000 nM.
`CC(C)(C)[C@@H]1Cc2c(cc(-c3cccs3)c3occc23)-c2cc(=O)c(C(=O)O)cn21` [Example 24, (S)-5-(tert-butyl)-9-oxo-12-(thiophen-2-yl)-4,9-dihydro-5H-furo[3,2-f]pyrido[2,1-a]isoquinoline-8-carboxylic acid] had an EC50 greater than 1000 nM.
`CC(C)(C)[C@@H]1Cc2c(cc(-c3ccsc3)c3occc23)-c2cc(=O)c(C(=O)O)cn21` [Example 25, (S)-5-(tert-butyl)-9-oxo-12-(thiophen-3-yl)-4,9-dihydro-5H-furo[3,2-f]pyrido[2,1-a]isoquinoline-8-carboxylic acid] yielded an EC50 greater than 1000 nM.
Take `CC(C)(C)[C@@H]1Cc2c(cc(-c3ccco3)c3occc23)-c2cc(=O)c(C(=O)O)cn21` [Example 26, (S)-5-(tert-butyl)-12-(furan-2-yl)-9-oxo-4,9-dihydro-5H-furo[3,2-f]pyrido[2,1-a]isoquinoline-8-carboxylic acid]: the half-maximal effective concentration (EC50) is greater than 1000 nM.
The compound `CC(C)(C)[C@@H]1Cc2c(cc(-c3cn[nH]c3)c3occc23)-c2cc(=O)c(C(=O)O)cn21` [Example 27, (S)-5-(tert-butyl)-9-oxo-12-(1H-pyrazol-4-yl)-4,9-dihydro-5H-furo[3,2-f]pyrido[2,1-a]isoquinoline-8-carboxylic acid] returned an EC50 greater than 1000 nM.
With `CC(C)(C)[C@@H]1Cc2c(cc(-c3ccn[nH]3)c3occc23)-c2cc(=O)c(C(=O)O)cn21` [Example 28, (S)-5-(tert-butyl)-9-oxo-12-(1H-pyrazol-5-yl)-4,9-dihydro-5H-furo[3,2-f]pyrido[2,1-a]isoquinoline-8-carboxylic acid] the figure was greater than 1000 nM; with `CC(C)(C)[C@@H]1Cc2c(cc(-c3cnsc3)c3occc23)-c2cc(=O)c(C(=O)O)cn21` [Example 29, (S)-5-(tert-butyl)-12-(isothiazol-4-yl)-9-oxo-4,9-dihydro-5H-furo[3,2-f]pyrido[2,1-a]isoquinoline-8-carboxylic acid], greater than 1000 nM.
On to `CC(C)(C)[C@@H]1Cc2c(cc(-c3cscn3)c3occc23)-c2cc(=O)c(C(=O)O)cn21` [Example 30, (S)-5-(tert-butyl)-9-oxo-12-(thiazol-4-yl)-4,9-dihydro-5H-furo[3,2-f]pyrido[2,1-a]isoquinoline-8-carboxylic acid], for which the EC50 was greater than 1000 nM.
